Structures are written as SMILES.

The target in the assay is T1, recombinant human MT1 receptor (Homo sapiens, UniProt P48039).
T1 construct: expressed in transfected cells; host or cells: unnamed cell line co-expressing mitochondrial apoaequorin and the Galpha16 subunit
Description: Agonist activity on MT1 receptors (aequorin luminescence, Gα16 co-expressing cell line). Conditions: percentage activity with respect to the reference agonist at its EC100; for MT1 agonism, 1 nm: compound at 1 nm; for MT1 agonism, 100 nm: compound at 100 nm. It is filed as cell-based. The text has this:
Determination of the Agonist Activity on MT1 Receptors
In order to screen compounds for the MT1 receptor a cell line is used that is characterised by stable overexpression of the recombinant human MT1 receptor in a cell line that in turn co-expresses mitochondrial apoaequorin and the Gα16 subunit.
The Ga16 subunit belongs to the G protein family, formed by GPCR, wherein the transduction of intracellular signals occurs via phospholipase (PLC). PLC activation produces an increase in inositol-triphosphate levels that leads to an increase in intracellular calcium. Ga16 overexpression thus allows an increase in intracellular calcium levels that is independent and compatible with the study receptor's own signal transduction pathway.
Following its binding to calcium, the aequorin oxidises coelenterazine to coelenteramide, a reaction that releases CO2 and light.
The trial protocol for the screening of possible agonists consists in collecting the cells and keeping them in suspension overnight in the presence of coelenterazine in order to reconstitute aequorin. On the following day the cells are injected on a plate where the compounds to be screened are diluted, and the luminescence released is read immediately. When wishing to study the possible antagonism of the same compounds, the reference agonist compound is added in the same well after 15-30 min from the first injection and the luminescence released is assessed.
Agonist activity is calculated as percentage activity with respect to the reference agonist at the concentration corresponding to its EC100. Antagonist activity is expressed as percentage inhibition over the reference agonist activity at the concentration corresponding to its EC80.

T1 sequence (P48039 whole entry): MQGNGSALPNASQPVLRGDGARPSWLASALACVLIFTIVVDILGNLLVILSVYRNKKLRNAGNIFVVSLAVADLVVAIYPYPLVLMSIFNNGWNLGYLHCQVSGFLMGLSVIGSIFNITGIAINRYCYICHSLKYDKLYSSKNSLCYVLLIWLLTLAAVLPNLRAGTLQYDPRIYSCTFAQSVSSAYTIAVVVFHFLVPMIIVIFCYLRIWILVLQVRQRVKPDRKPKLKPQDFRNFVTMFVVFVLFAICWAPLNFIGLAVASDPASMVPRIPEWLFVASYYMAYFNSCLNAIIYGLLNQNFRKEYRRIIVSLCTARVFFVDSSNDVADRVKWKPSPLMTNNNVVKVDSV

For `COc1ccc2c(c1)N(CCNC(=O)C(F)(F)F)CC2` [Example 4, 2,2,2-trifluoro-N-[2-(6-methoxy-2,3-dihydro-indol-1-yl)-ethyl]-acetamide], the MT1 agonism, 1 nm amounted to 14.6% and the MT1 agonism, 100 nm was determined as 94%.
On the same counts, the results for `COc1ccc2c(c1)N(CCNC(C)=O)CC2` [Example 1, N-[2-(6-methoxy-2,3-dihydro-indol-1-yl)-ethyl]-acetamide] are 13.1% and 92%.
As to `CC(=O)NCCN1CCc2ccc3c(c21)CCO3` [N-[2-(2,3,7,8-tetrahydro-1H-furo[2,3-g]indol-1-yl)-ethyl]-acetamide, reference compound], the MT1 agonism, 1 nm stood at 13.9% and the MT1 agonism, 100 nm amounted to 76.6%.
As for `COc1ccc2c(c1)N(C(C)CNC(C)=O)CC2` (centres unmarked) [Example 5, N-[2-(6-methoxy-2,3-dihydro-indol-1-yl)-propyl]-acetamide], the MT1 agonism, 1 nm was found to be 11.5% and the MT1 agonism, 100 nm is 89.8%.
